Reference: patent US11608319B2, “Beta-amino acid derivative, kinase inhibitor and pharmaceutical composition containing the same, and method for performing an in vivo related application that benefits from the inhibition of a kinase” (Industrial Technology Research Institute, priority 2019, dated 2023)
Where a name gives a salt, the structure may show the parent alone. Read-outs that look alike come from different tables or passages of the source.

Key:
ROCK1 = ROCK1 (Homo sapiens (Human), UniProt Q13464); assay: biochemical
MYLK4 = MYLK4 (Homo sapiens (Human), UniProt Q86YV6); assay: Assay for inhibitory effect on MYLK-4, LanthaScreen Eu Kinase Binding Assay
YSK4 = YSK4 (Homo sapiens (Human), UniProt Q56UN5); assay: Assay for inhibitory effect on YSK-4, Z'-LYTE kinase assay; format: biochemical; settings: ATP 5 μM
Method: C. Assay for Inhibitory Effect on YSK-4
The experimental procedure referred to the Z′-LYTE Screening Protocol and Assay Conditions provided by ThermoFisher Scientific.
C-1. Material Preparation
Peptide/Kinase Mixture was pre-diluted with Kinase Buffer to 2× working concentration.
ATP solution was pre-diluted with Kinase Buffer (50 mM HEPES pH 7.5, 0.01% BRIJ-35, 10 mM MgCl2, 1 mM EGTA) to 4× working concentration.
The development reagent solution is Novel PKC Lipid Mix, which contains 2 mg/mL Phosphatidyl Serine, 0.2 mg/mL DAG in 20 mM HEPES, pH 7.4 and 0.3% CHAPS, and was pre-diluted 10 fold with development buffer.
1. 100 nL of the above diluted test compound and 2.4 μL of kinase buffer were added to a black 384-well plate (Corning, Cat. NO. 4514), then add 5 μL of the peptide/kinase mixture mentioned above was added thereto, and after that 2.5 μL of ATP solution was added thereto, and the culture plate was shaken for 30 seconds.
2. Next, the culture plate was placed at room temperature and incubated for 60 minutes.
3. After that 5 μL of the development reagent solution was added and the culture plate was shaken for 30 seconds in the dark, and then the data was read and analyzed with a fluorescence plate reader.
In addition, for the kinase, the following control group was prepared and placed on the same culture plate as the kinase:
(1) 0% Phosphorylation Control (100% Inhibition Control)
This control yields 100% cleaved peptide in the Development Reaction.
(2) 100% Phosphorylation Control
A synthetically phosphorylated peptide of the same sequence as the peptide substrate is used as the 100% Phosphorylation Control.
The Phosphorylation percent achieved in a specific reaction well (Experimental group) was calculated based on the 0% Phosphorylation Control and 100% Phosphorylation Control.

[1] = test system: rabbit eyes with normal intraocular pressure; assay: Evaluation of the effect of decreasing intraocular pressure in a model of rabbit with normal intraocular pressure; format: in vivo, New Zealand white rabbit; settings: for Intraocular pressure difference (mmHg): at time point of maximum effect
Method: Evaluation of the Effect of Decreasing Intraocular Pressure in a Model of Rabbit with Normal Intraocular Pressure
Experimental animal: New Zealand white rabbit, male, weighing more than 2 kg. New Zealand white rabbits were purchased from Huijun Farm (Changhua, Taiwan). After a one-week quarantine period, they were raised in MASTER LABORATORY Co., Ltd under the environmental conditions of 16-22° C., 30-70% relative humidity (RH), 8 hours day/16 hours night.
(1) Evaluation of the Effect of Reducing Intraocular Pressure
After weighing 12 New Zealand white rabbits (2.0-4.0 kg) and grouping them (n=3-6 in each group), the white rabbits were fixed with a wrap.

[2] = test system: rabbit eyes with normal intraocular pressure; settings: eye drop concentration

Sequence of YSK4 (Q56UN5 whole entry): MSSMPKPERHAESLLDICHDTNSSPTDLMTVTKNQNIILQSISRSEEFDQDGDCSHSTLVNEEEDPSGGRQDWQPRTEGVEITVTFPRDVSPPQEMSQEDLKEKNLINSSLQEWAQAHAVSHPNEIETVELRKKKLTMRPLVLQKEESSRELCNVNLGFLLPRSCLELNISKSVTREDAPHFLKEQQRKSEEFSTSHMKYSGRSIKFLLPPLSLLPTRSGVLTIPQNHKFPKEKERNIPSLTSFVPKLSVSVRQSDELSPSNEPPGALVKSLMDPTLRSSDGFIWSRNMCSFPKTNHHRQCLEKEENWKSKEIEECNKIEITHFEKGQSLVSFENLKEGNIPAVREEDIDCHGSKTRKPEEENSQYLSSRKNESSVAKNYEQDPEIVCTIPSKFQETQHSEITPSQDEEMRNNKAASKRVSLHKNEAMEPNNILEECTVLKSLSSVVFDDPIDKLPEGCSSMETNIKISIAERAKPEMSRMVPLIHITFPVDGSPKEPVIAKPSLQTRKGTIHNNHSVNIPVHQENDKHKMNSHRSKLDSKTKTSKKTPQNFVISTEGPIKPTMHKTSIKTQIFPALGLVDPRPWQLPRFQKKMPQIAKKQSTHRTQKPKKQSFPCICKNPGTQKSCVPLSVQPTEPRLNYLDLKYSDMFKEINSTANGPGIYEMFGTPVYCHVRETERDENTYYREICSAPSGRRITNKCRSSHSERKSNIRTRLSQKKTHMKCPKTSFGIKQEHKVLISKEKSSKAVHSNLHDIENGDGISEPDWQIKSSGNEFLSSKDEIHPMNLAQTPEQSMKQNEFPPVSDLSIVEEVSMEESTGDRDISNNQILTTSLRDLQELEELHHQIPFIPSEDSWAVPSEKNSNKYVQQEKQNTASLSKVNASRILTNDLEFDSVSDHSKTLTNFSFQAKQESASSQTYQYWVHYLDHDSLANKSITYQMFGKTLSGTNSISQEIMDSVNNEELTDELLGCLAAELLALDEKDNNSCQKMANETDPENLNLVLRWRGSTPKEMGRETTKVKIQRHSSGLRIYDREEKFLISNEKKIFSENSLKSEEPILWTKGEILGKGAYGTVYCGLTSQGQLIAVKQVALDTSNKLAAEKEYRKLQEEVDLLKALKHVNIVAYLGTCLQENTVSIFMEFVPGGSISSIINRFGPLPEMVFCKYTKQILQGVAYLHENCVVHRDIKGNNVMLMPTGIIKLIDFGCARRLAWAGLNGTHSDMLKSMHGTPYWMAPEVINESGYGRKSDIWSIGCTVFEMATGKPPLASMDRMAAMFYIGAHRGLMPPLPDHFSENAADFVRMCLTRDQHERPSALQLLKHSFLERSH
Sequence of MYLK4 (Q86YV6 whole entry): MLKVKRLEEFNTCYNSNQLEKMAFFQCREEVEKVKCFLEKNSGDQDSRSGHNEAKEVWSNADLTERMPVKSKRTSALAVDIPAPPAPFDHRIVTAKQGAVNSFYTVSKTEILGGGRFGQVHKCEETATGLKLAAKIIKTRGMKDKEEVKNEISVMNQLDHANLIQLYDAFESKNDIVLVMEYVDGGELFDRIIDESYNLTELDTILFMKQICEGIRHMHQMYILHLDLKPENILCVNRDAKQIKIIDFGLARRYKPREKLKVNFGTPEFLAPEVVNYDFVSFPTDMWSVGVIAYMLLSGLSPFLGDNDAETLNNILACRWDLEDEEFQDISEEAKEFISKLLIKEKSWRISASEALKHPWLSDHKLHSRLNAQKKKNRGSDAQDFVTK
Sequence of ROCK1 (Q13464 whole entry, species assumed): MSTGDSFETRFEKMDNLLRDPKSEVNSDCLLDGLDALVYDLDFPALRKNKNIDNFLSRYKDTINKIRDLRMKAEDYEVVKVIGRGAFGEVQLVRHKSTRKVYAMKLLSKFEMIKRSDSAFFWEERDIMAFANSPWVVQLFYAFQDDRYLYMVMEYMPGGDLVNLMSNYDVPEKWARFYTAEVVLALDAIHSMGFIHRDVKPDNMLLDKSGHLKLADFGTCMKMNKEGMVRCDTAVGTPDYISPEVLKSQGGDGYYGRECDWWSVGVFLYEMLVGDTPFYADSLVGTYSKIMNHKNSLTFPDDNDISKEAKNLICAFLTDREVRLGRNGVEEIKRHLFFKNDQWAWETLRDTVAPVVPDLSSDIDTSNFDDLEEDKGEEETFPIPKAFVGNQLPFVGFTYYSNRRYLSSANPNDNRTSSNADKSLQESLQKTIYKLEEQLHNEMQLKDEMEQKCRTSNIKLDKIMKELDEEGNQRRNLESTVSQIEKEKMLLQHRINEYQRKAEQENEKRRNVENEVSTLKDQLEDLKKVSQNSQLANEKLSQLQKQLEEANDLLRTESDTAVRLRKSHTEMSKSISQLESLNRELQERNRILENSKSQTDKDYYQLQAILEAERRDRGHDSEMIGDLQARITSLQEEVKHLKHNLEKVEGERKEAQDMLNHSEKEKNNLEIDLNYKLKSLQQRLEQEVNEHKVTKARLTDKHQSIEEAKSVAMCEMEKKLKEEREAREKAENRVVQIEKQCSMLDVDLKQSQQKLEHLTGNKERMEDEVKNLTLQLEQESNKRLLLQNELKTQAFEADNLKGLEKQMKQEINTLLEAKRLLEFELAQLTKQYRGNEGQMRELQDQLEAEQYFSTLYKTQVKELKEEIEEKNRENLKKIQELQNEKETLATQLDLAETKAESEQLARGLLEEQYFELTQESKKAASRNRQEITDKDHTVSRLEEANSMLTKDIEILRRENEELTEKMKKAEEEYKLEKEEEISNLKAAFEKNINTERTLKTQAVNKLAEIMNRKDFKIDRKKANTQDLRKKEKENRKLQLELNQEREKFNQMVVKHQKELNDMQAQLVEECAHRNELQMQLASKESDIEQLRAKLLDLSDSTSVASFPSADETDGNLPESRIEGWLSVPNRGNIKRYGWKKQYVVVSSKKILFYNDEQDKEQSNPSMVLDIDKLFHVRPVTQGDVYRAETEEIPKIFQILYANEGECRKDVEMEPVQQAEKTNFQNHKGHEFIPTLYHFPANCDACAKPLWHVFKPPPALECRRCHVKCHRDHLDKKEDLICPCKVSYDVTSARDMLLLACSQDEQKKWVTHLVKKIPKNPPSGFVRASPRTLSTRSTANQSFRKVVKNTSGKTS

In the case of `NC[C@@H](C(=O)Nc1ccc2cnccc2c1)c1ccc(CO)cc1` [AR-13503, reference compound], the IC50 (ROCK1; read-out: ROCK1 IC50) is reported as < 1 nM and the IC50 (MYLK4) is reported as 100 to 1000 nM.
In the case of `[N-]=[N+]=NC(CN)C(=O)Nc1ccc(-c2cn[nH]c2)cc1` (centres unmarked) [Compound 1, N-(4-(1H-pyrazol-4-yl)phenyl)-3-amino-2-azidopropanamide dihydrochloride], the IC50 (ROCK1) is reported as 100 to 1000 nM, the IC50 (MYLK4) is reported as 100 to 1000 nM and the IC50 (YSK4) is reported as > 10000 nM.
In the case of `NCC(C(=O)Nc1ccc(-c2cn[nH]c2)cc1)n1cc(-c2ccccc2)nn1` (centres unmarked) [Compound 2, dihydrochloride], the IC50 (ROCK1) is reported as 10 to 100 nM, the IC50 (MYLK4) is reported as 100 to 1000 nM and the IC50 (YSK4) is reported as > 10000 nM.
`NCC(O)C(=O)Nc1ccc(-c2cn[nH]c2)cc1` (centres unmarked) [Compound 3, N-(4-(1H-pyrazol-4-yl)phenyl)-3-amino-2-hydroxypropanamide dihydrochloride] showed an IC50 (ROCK1) of 100 to 1000 nM.
`NCC(Oc1ccccc1)C(=O)Nc1ccc(-c2cn[nH]c2)cc1` (centres unmarked) [Compound 4, N-(4-(1H-pyrazol-4-yl)phenyl)-3-amino-2-phenoxypropanamide dihydrochloride] was tested, and the IC50 (ROCK1) was 1 to 10 nM, the “time point at which maximum effect is achieved” value (“time point” below) ([1]; dose 1%) was 2 h and the “Intraocular pressure difference (mmHg)” value ([1]; dose 1%) was 4.2 mmHg. The “maximum effect (Emax) dose in the normal intraocular pressure rabbit model” value (“maximum effect (Emax) dose” for short) [2] was 1%.
`NCC(Oc1ccc(C(F)(F)F)cc1)C(=O)Nc1ccc(-c2cn[nH]c2)cc1` (centres unmarked) [Compound 5, N-(4-(1H-pyrazol-4-yl)phenyl)-3-amino-2-(4-(trifluoromethyl)phenoxy)propenamide dihydrochloride] was tested, and the IC50 (ROCK1) was 1 to 10 nM, the IC50 (MYLK4) was 100 to 1000 nM and the “time point” value ([1]; dose 1%) was 6 h. For the same compound, the “Intraocular pressure difference (mmHg)” value ([1]; dose 1%) was 1.5 mmHg and the “maximum effect (Emax) dose” value [2] was 1%.
With `NCC(OCc1ccccc1)C(=O)Nc1ccc(-c2cn[nH]c2)cc1` (centres unmarked) [Compound 6, N-(4-(1H-pyrazol-4-yl)phenyl)-3-amino-2-(benzyloxy) propanamidedihydrochloride] the IC50 (ROCK1) was 10 to 100 nM, the IC50 (MYLK4) was 100 to 1000 nM and the IC50 (YSK4) was > 10000 nM.
Compound `NCC(C(=O)Nc1ccc(-c2cn[nH]c2)cc1)c1ccc(O)cc1` (centres unmarked) [Compound 9, N-(4-(1H-pyrazol-4-yl)phenyl)-3-amino-2-(4-hydroxyphenyl) propanamide dihydrochloride] has an IC50 (ROCK1) of 1 to 10 nM.
`Cc1ccc(C(=O)Oc2ccc(C(CN)C(=O)Nc3ccc(-c4cn[nH]c4)cc3)cc2)c(C)c1` (centres unmarked) [Compound 10, 4-(1-((4-(1H-pyrazol-4-yl)phenyl)amino)-3-amino-1-oxopropan-2-yl)phenyl 2,4-dimethylbenzoate dihydrochloride] was tested, and the IC50 (ROCK1) was 100 to 1000 nM, the IC50 (MYLK4) was > 1000 nM and the IC50 (YSK4) was > 10000 nM.
In the case of `NCC(C(=O)Nc1ccc(-c2cn[nH]c2)cc1)c1ccc(CO)cc1` (centres unmarked) [Compound 11, N-(4-(1H-pyrazol-4-yl)phenyl)-3-amino-2-(4-(hydroxymethyl)phenyl)propenamide dihydrochloride], the IC50 (ROCK1) is reported as 1 to 10 nM, the IC50 (MYLK4) is reported as 100 to 1000 nM and the “time point” value ([1]; dose 0.5%) is reported as 1 h. For the same compound, the “Intraocular pressure difference (mmHg)” value ([1]; dose 0.5%) was 2.0 mmHg and the “maximum effect (Emax) dose” value [2] was 0.5%.
`NCC(C(=O)Nc1ccc(-c2cn[nH]c2)cc1)c1ccc(C=O)cc1` (centres unmarked) [Compound 13, N-(4-(1H-pyrazol-4-yl)phenyl)-3-amino-2-(4-formylphenyl)propanamide dihydrochloride] was tested, and the IC50 (ROCK1; read-out: ROCK1 IC50) was < 1 nM, the IC50 (MYLK4) was 100 to 1000 nM and the IC50 (YSK4) was > 1000 nM.
In the case of `NCC(NC(=S)Nc1ccc(-c2cn[nH]c2)cc1)c1ccccc1` (centres unmarked) [Compound 15, 1-(4-(1H-pyrazol-4-yl)phenyl)-3-(2-amino-1-phenylethyl)thiourea dihydrochloride], the IC50 (ROCK1) is reported as 100 to 1000 nM, the IC50 (MYLK4) is reported as 100 to 1000 nM and the IC50 (YSK4) is reported as > 10000 nM.
`NCC(C(=O)Nc1ccc(Oc2cn[nH]c2)cc1)c1ccccc1` (centres unmarked) [Compound 18, N-(4-((1H-pyrazol-4-yl)oxy)phenyl)-3-amino-2-phenylpropanamide dihydrochloride] was tested, and the IC50 (ROCK1; read-out: ROCK1 IC50) was > 10000 nM.
For `NC[C@H](C(=O)Nc1ccc(-c2cn[nH]c2)cc1)c1ccccc1` [Compound 21, (R)—N-(4-(1H-pyrazol-4-yl)phenyl)-3-amino-2-phenylpropanamide dihydrochloride], the IC50 (ROCK1) was 100 to 1000 nM, the IC50 (MYLK4) was 100 to 1000 nM and the “time point” value ([1]; dose 0.03%) was 8 h. The “Intraocular pressure difference (mmHg)” value ([1]; dose 0.03%) was 1.3 mmHg.
